Assay: Solution state photophysical studies (absorption, emission, lifetime) in DMSO
Assay type: physicochemical
Details: in DMSO at RT; for λmax (abs.) / λmax (em.): 10 μM; for λmax (em.): under UV light (λexc=365 nm)
Procedure: For solution state photophysical studies (absorption, emission and lifetime) stock for all compounds (1 mM concentration) were prepared in DMSO solvent. For the measurement, the required volume was added from the stock solution in 1 mL solution to make it final concentration as 10 μM. For aggregation induced emission (AIE) measurement, different ratio of DCM-Hexane solvent mixture (0-99%) was prepared by adding required volume of DCM and Hexane, subsequently measurements were performed by maintaining 10 μM dye concentration in each 1 mL solution.
The AIE images were taken in 5 ml vials which were placed on a handled UV (excitation wavelength 365 nm) instrument. For the solid-state absorption and emission measurements, powder samples were prepared by dissolving compound and BaSO4 in DCM and then evaporated to dryness. Solution Spectra were measured in HORIBA Jobin Yvon Fluorolog using 1 cm path length quartz cuvette. To make the powder more homogenous, mixtures were grinded effectively for few minutes.

For `COc1ccc(-c2cccc3c4ccccc4cc(-c4cccc5ccccc45)[n+]23)cc1.O=S(=O)([O-])C(F)(F)F` [2aa, 4-(4-methoxyphenyl)-6-(naphthalen-1-yl)pyrido[2,1-a]isoquinolin-5-ium trifluoromethanesulfonate], the Lifetime was 4.09 ns, the “Rel. QY” value was 0.062 and the Stokes shift was 143 nm. The “λmax (abs.)” value was 397 nm and the “λmax (em.)” value was 540 nm.
For `COc1ccc(-c2cccc3c4cc(C)cc(C)c4cc(-c4ccccc4)[n+]23)cc1.O=S(=O)([O-])C(F)(F)F` [2t, 4-(4-methoxyphenyl)-8.10-dimethyl-6-phenylpyrido[2,1-a]isoquinolin-5-ium trifluoro methanesulfonate], the Lifetime was 4.49 ns, the “Rel. QY” value was 0.024 and the Stokes shift was 132 nm. For the same compound, the “λmax (abs.)” value was 410 nm and the “λmax (em.)” value was 542 nm.
In the case of `COc1ccc(-c2cccc3c4cc(C)ccc4cc(-c4ccccc4)[n+]23)cc1.O=S(=O)([O-])C(F)(F)F` [2m, 4-(4-methoxyphenyl)-10-methyl-6-phenylpyrido[2,1-a]isoquinolin-5-ium trifluoro methanesulfonate], the Lifetime is reported as 3.6 ns, the “Rel. QY” value is reported as 0.020 and the Stokes shift is reported as 131 nm. For the same compound, the “λmax (abs.)” value was 409 nm and the “λmax (em.)” value was 540 nm.
For `COc1ccc(-c2cccc3c4ccccc4cc(-c4ccccc4)[n+]23)cc1.O=S(=O)([O-])C(F)(F)F` [2f, 4-(4-methoxyphenyl)-6-phenylpyrido[2,1-a]isoquinolin-5-ium trifluoromethane sulfonate], the Lifetime was 5.32 ns, the “Rel. QY” value was 0.018 and the Stokes shift was 136 nm. For the same compound, the “λmax (abs.)” value was 404 nm and the “λmax (em.)” value was 540 nm.
With `COc1ccc(-c2cccc3c4cc(OC)cc(OC)c4cc(-c4ccccc4)[n+]23)cc1.O=S(=O)([O-])C(F)(F)F` [2u, 8,10-dimethoxy-4-(4-methoxyphenyl)-6-phenylpyrido[2,1-a]isoquinolin-5-ium trifluoromethanesulfonate] the Lifetime was 4.2 ns, the “Rel. QY” value was 0.125 and the Stokes shift was 172 nm. For the same compound, the “λmax (abs.)” value was 430 nm and the “λmax (em.)” value was 602 nm.
In the case of `COc1ccc(-c2cccc3c4ccccc4cc(-c4cc(OC)cc(OC)c4)[n+]23)cc1.O=S(=O)([O-])C(F)(F)F` [2y, 6-(3,5-dimethoxyphenyl)-4-(4-methoxyphenyl)pyrido[2,1-a]isoquinolin-5-ium trifluoromethanesulfonate], the Lifetime is reported as 5.72 ns, the “Rel. QY” value is reported as 0.006 and the Stokes shift is reported as 139 nm. The “λmax (abs.)” value was 401 nm and the “λmax (em.)” value was 540 nm.
For `O=S(=O)([O-])C(F)(F)F.c1ccc(-c2cc3ccccc3c3cccc(-c4cc5ccccc5c5ccccc45)[n+]23)cc1` [2j, 4-(phenanthren-9-yl)-6-phenylpyrido[2,1-a]isoquinolin-5-ium trifluoromethane sulfonate], the Lifetime was 5.19 ns, the “Rel. QY” value was 0.220 and the Stokes shift was 147 nm. The “λmax (abs.)” value was 397 nm and the “λmax (em.)” value was 544 nm.
For `COc1ccc(-c2cccc3c4ccc(C)cc4cc(-c4ccccc4)[n+]23)cc1.O=S(=O)([O-])C(F)(F)F` [2r, 4-(4-methoxyphenyl)-9-methyl-6-phenylpyrido[2,1-a]isoquinolin-5-ium trifluoro methanesulfonate], the Lifetime was 5.93 ns, the “Rel. QY” value was 0.017 and the Stokes shift was 133 nm. The “λmax (abs.)” value was 405 nm and the “λmax (em.)” value was 538 nm.
For `O=S(=O)([O-])C(F)(F)F.c1ccc(-c2cccc3c4ccccc4cc(-c4ccccc4)[n+]23)cc1` [2a, 4,6-diphenylpyrido[2,1-a]isoquinolin-5-ium trifluoromethanesulfonate], the Lifetime was 5.84 ns, the “Rel. QY” value was 0.015 and the Stokes shift was 116 nm. The “λmax (abs.)” value was 392 nm and the “λmax (em.)” value was 508 nm.
For `COc1ccc(-c2cccc3c4cc(-c5cccc6ccccc56)ccc4cc(-c4ccccc4)[n+]23)cc1.O=S(=O)([O-])C(F)(F)F` [2p, 4-(4-methoxyphenyl)-10-(naphthalen-1-yl)-6-phenylpyrido[2,1-a]isoquinolin-5-ium trifluoromethanesulfonate], the Lifetime was 3.38 ns, the “Rel. QY” value was 0.032 and the Stokes shift was 140 nm. The “λmax (abs.)” value was 412 nm and the “λmax (em.)” value was 552 nm.
With `COc1ccc(-c2cccc3c4cc(-c5ccccc5)ccc4cc(-c4ccccc4)[n+]23)cc1.O=S(=O)([O-])C(F)(F)F` [2o, 4-(4-methoxyphenyl)-6,10-diphenylpyrido[2,1-a]isoquinolin-5-ium trifluoro methanesulfonate] the Lifetime was 3.72 ns, the “Rel. QY” value was 0.036 and the Stokes shift was 129 nm. The “λmax (abs.)” value was 417 nm and the “λmax (em.)” value was 546 nm.

From US20240400559A1, “SOLID STATE EMITTERS BASED ON PYRIDINIUM SCAFFOLDS” (Council of Scientific and Industrial Research, priority 2021, published 2024)
